Where two headings read alike, the source gives them in different places.
Experiments:
Type in all cases: in vivo, Helianthus annuus
[1] = test system: sunflower TH11 (Hybrid, A122T); conditions: 14 DAT
Protocol: (§1) A greenhouse study was conducted to quantify and contrast the imazapir sensivity of the mutants A122T and A205V in different genetic backgrounds at the whole plant level in sunflower. Seeds of the different sunflower lines that were used in this study were obtained under field conditions.
(§2) Seeds were sown in Petri dishes and, after germination, plantlets were transplanted to pots of 10 cm of diameter in a potting media consisting of equal parts of vermiculite, soil and sand. Plants were grown in a greenhouse under natural light conditions supplemented with 400 W sodium halide lamps to provide a 16 hrs daylength. Day/night temperatures were 25 and 20° C., respectively. At the V2 stage 10 plants of each genotype were randomly assigned to each treatment consisting of […] imazapir doses (0, 40, 80, 160, 240, 320, 400 and 480 g ai/ha), and a zero-time biomass determination. Experiment was arranged as a randomized block design with a full factorial (sunflower line×treatment) arrangement of treatments and 10 replications.
(§3) On the day of herbicide application ten plants of each genotype were cut at the cotyledonal node and dried at 60° C. for 48 hrs zero-time for dried weight determination.
(§4) Height was determined as the distance between the cotyledonal node and the apex of each plant. For root biomass determination, each plant was taken from the pot and the potting media was washed out from the roots. Above ground biomass data from each line were converted to biomass accumulation after application by subtracting the appropriate average zero-time biomass from each sample. Dry biomass data were converted to percentages of the untreated control plants within each line to allow direct comparisons between groups. […]

[2] = test system: sunflower TH6 (Hybrid, A122T); conditions: 14 DAT
Protocol: as §1, §2, §3, §4

[3] = test system: sunflower lines carrying the A205V mutation; conditions: A205V mean, 14 DAT
Protocol: as §1, §2, §3, §4

In the case of `CC(C)C1(C)N=C(c2ncccc2C(=O)O)NC1=O` (stereo not shown) [imazapyr], the “Phytotoxicity Index” value ([1]; 0.5x (40 g ai/ha)) is reported as 0.4, the “biomass accumulation (above ground dry weight)” value ([1]; 0.5x (40 g ai/ha)) is reported as 96.6 % of untreated plots and the plant height ([1]; 0.5x (40 g ai/ha)) is reported as 100.4 % of untreated plots. The root dry weight ([1]; 0.5x (40 g ai/ha)) was 100 % of untreated plots, the “Phytotoxicity Index” value ([1]; 1x (80 g ai/ha)) was 0.4 and the “biomass accumulation (above ground dry weight)” value ([1]; 1x (80 g ai/ha)) was 93.9 % of untreated plots. The plant height ([1]; 1x (80 g ai/ha)) was 99.9 % of untreated plots, the root dry weight ([1]; 1x (80 g ai/ha)) was 99.0 % of untreated plots and the “Phytotoxicity Index” value ([1]; 2x (160 g ai/ha)) was 0.4. The “biomass accumulation (above ground dry weight)” value ([1]; 2x (160 g ai/ha)) was 81.6 % of untreated plots, the plant height ([1]; 2x (160 g ai/ha)) was 92.0 % of untreated plots and the root dry weight ([1]; 2x (160 g ai/ha)) was 86.1 % of untreated plots. For the same compound, the “Phytotoxicity Index” value ([1]; 3x (240 g ai/ha)) was 0.5, the “biomass accumulation (above ground dry weight)” value ([1]; 3x (240 g ai/ha)) was 75.8 % of untreated plots and the plant height ([1]; 3x (240 g ai/ha)) was 90.5 % of untreated plots. For the same compound, the root dry weight ([1]; 3x (240 g ai/ha)) was 81.5 % of untreated plots, the “Phytotoxicity Index” value ([1]; 4x (320 g ai/ha)) was 1.0 and the “biomass accumulation (above ground dry weight)” value ([1]; 4x (320 g ai/ha)) was 75.0 % of untreated plots. For the same compound, the plant height ([1]; 4x (320 g ai/ha)) was 90.8 % of untreated plots, the root dry weight ([1]; 4x (320 g ai/ha)) was 72.6 % of untreated plots and the “Phytotoxicity Index” value ([1]; 5x (400 g ai/ha)) was 2.0. For the same compound, the “biomass accumulation (above ground dry weight)” value ([1]; 5x (400 g ai/ha)) was 60.1 % of untreated plots, the plant height ([1]; 5x (400 g ai/ha)) was 84.4 % of untreated plots and the root dry weight ([1]; 5x (400 g ai/ha)) was 68.9 % of untreated plots. The “Phytotoxicity Index” value ([1]; 6x (480 g ai/ha)) was 2.5, the “biomass accumulation (above ground dry weight)” value ([1]; 6x (480 g ai/ha)) was 59.6 % of untreated plots and the plant height ([1]; 6x (480 g ai/ha)) was 84.4 % of untreated plots. For the same compound, the root dry weight ([1]; 6x (480 g ai/ha)) was 45.3 % of untreated plots, the “Phytotoxicity Index” value ([2]; 0.5x (40 g ai/ha)) was 0.5 and the “biomass accumulation (above ground dry weight)” value ([2]; 0.5x (40 g ai/ha)) was 100 % of untreated plots. The plant height ([2]; 0.5x (40 g ai/ha)) was 99.2 % of untreated plots, the root dry weight ([2]; 0.5x (40 g ai/ha)) was 100 % of untreated plots and the “Phytotoxicity Index” value ([2]; 1x (80 g ai/ha)) was 0.5. The “biomass accumulation (above ground dry weight)” value ([2]; 1x (80 g ai/ha)) was 97.2 % of untreated plots, the plant height ([2]; 1x (80 g ai/ha)) was 98.6 % of untreated plots and the root dry weight ([2]; 1x (80 g ai/ha)) was 98.1 % of untreated plots. The “Phytotoxicity Index” value ([2]; 2x (160 g ai/ha)) was 0.5, the “biomass accumulation (above ground dry weight)” value ([2]; 2x (160 g ai/ha)) was 97.9 % of untreated plots and the plant height ([2]; 2x (160 g ai/ha)) was 100.3 % of untreated plots. For the same compound, the root dry weight ([2]; 2x (160 g ai/ha)) was 98.2 % of untreated plots, the “Phytotoxicity Index” value ([2]; 3x (240 g ai/ha)) was 0.5 and the “biomass accumulation (above ground dry weight)” value ([2]; 3x (240 g ai/ha)) was 98.2 % of untreated plots. The plant height ([2]; 3x (240 g ai/ha)) was 99.8 % of untreated plots, the root dry weight ([2]; 3x (240 g ai/ha)) was 79.3 % of untreated plots and the “Phytotoxicity Index” value ([2]; 4x (320 g ai/ha)) was 0.5. The “biomass accumulation (above ground dry weight)” value ([2]; 4x (320 g ai/ha)) was 97.8 % of untreated plots, the plant height ([2]; 4x (320 g ai/ha)) was 101.0 % of untreated plots and the root dry weight ([2]; 4x (320 g ai/ha)) was 78.4 % of untreated plots. For the same compound, the “Phytotoxicity Index” value ([2]; 5x (400 g ai/ha)) was 0.5, the “biomass accumulation (above ground dry weight)” value ([2]; 5x (400 g ai/ha)) was 85.1 % of untreated plots and the plant height ([2]; 5x (400 g ai/ha)) was 87.0 % of untreated plots. The root dry weight ([2]; 5x (400 g ai/ha)) was 85.8 % of untreated plots, the “Phytotoxicity Index” value ([2]; 6x (480 g ai/ha)) was 0.5 and the “biomass accumulation (above ground dry weight)” value ([2]; 6x (480 g ai/ha)) was 79.5 % of untreated plots. For the same compound, the plant height ([2]; 6x (480 g ai/ha)) was 79.6 % of untreated plots, the root dry weight ([2]; 6x (480 g ai/ha)) was 57.3 % of untreated plots and the “biomass accumulation, Dif with Control” value ([3]; 0.5x (40 g ai/ha)) was 5.5 % of untreated plots. For the same compound, the “plant height, Dif with Control” value ([3]; 0.5x (40 g ai/ha)) was 5.6 % of untreated plots, the “root dry weight, Dif with Control” value ([3]; 0.5x (40 g ai/ha)) was 12.8 % of untreated plots and the “biomass accumulation, Dif with Control” value ([3]; 1x (80 g ai/ha)) was 17.8 % of untreated plots. The “plant height, Dif with Control” value ([3]; 1x (80 g ai/ha)) was 10.8 % of untreated plots, the “root dry weight, Dif with Control” value ([3]; 1x (80 g ai/ha)) was 29.2 % of untreated plots and the “biomass accumulation, Dif with Control” value ([3]; 2x (160 g ai/ha)) was 38.4 % of untreated plots. For the same compound, the “plant height, Dif with Control” value ([3]; 2x (160 g ai/ha)) was 30.8 % of untreated plots.

From patent publication US20180016593A1, “HERBICIDE-RESISTANT SUNFLOWER PLANTS, POLYNUCLEOTIDES ENCODING HERBICIDE-RESISTANT ACETOHYDROXYACID SYNTHASE LARGE SUBUNIT PROTEINS, AND METHODS OF USE” (priority 2005, published 2018)
